US11560385B2, “Proteasome activity enhancing compounds” (Proteostasis Therapeutics, Inc., priority 2018, dated 2023)
pIC50: −log10 of the molar value.

biological target: USP14 (Homo sapiens (Human), UniProt P54578); test: Usp14 inhibition assay (Example 57B, B-series compounds); format: biochemical; details: IC50 class; average value from a minimum of two experimental determinations
Source text: Example 57B: Usp14 Inhibition Assay
The IC50 values in the Table below represent the average value from a minimum of two experimental determinations.

Sequence of USP14 (P54578 whole entry, looked up): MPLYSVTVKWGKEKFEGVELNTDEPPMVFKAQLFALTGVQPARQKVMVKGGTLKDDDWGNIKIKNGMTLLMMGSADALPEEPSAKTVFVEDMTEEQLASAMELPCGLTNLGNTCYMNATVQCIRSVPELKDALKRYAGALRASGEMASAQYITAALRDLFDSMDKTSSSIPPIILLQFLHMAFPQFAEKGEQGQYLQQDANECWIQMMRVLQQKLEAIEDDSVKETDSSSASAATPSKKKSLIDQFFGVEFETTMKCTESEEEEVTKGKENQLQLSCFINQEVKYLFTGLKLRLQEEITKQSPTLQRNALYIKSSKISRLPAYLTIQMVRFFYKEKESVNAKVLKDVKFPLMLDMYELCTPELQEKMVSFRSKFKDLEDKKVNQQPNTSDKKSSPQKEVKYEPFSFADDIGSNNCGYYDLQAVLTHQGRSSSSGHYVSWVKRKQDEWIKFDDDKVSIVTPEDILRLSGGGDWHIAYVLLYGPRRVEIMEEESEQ

Row | SMILES | pIC50
1 | Cc1c(C(=O)CN2[C@@H]3CC[C@H]2[C@@H](O)C3)cc(CCCC2CCOCC2)n1-c1ccc(C#N)cc1 (racemic) [Example 2B, (±)-4-(3-(2-((1S,2S,4R)-2-Hydroxy-7-azabicyclo[2.2.1]heptan-7-yl)acetyl)-2-methyl-5-(3-(tetrahydro-2H-pyran-4-yl)propyl)-1H-pyrrol-1-yl)benzonitrile] | > 7.30
2 | Cc1c(C(=O)CN2C3CCC2[C@@H](O)C3)cc(C[C@H]2C[C@@H](C#N)C2)n1-c1ccc(C#N)cc1 (mixture of isomers) [Example 4B, (±)-4-(5-4(1s,3S)-3-cyanocyclobutyl)methyl)-3-(2-((1R,2R,4S)-2-hydroxy-7-azabicyclo[2.2.1]heptan-7-yl)acetyl)-2-methyl-1H-pyrrol-1-yl)benzonitrile] | > 7.30
3 | Cc1c(C(=O)CN2C3CCC2[C@@H](O)C3)cc(COCCC#N)n1-c1ccc(C#N)cc1 (mixture of isomers) [Example 5B, (±)-4-(5-((2-Cyanoethoxy)methyl)-3-(2-((2R)-2-hydroxy-7-azabicyclo[2.2.1]heptan-7-yl)acetyl)-2-methyl-1H-pyrrol-1-yl)benzonitrile] | < 6.30
4 | Cc1nccn1C/C=C/c1cc(C(=O)CN2C3CCC2[C@@H](O)C3)c(C)n1-c1ccc(C#N)cc1 (mixture of isomers) [Example 6B, (±)-4-(3-(2-((2R)-2-Hydroxy-7-azabicyclo[2.2.1]heptan-7-yl)acetyl)-2-methyl-5-((E)-3-(2-methyl-1H-imidazol-1-yl)prop-1-en-1-yl)-1H-pyrrol-1-yl)benzonitrile] | > 7.30
5 | Cc1c(C(=O)CN2C3CCC2[C@@H](O)C3)cc(CCCCS(C)(=O)=O)n1-c1ccc(C#N)cc1 (mixture of isomers) [Example 8B, (±)-4-(3-(2-((1R,2R,4S)-2-Hydroxy-7-azabicyclo[2.2.1]heptan-7-yl)acetyl-2-methyl-5-(4-(methylsulfonyl)butyl)-1H-pyrrol-1-yl)benzonitrile] | > 7.30
6 | Cc1c(C(=O)CN2C3CCC2[C@@H](O)C3)cc(CCC2CCOCC2)n1-c1ccc(C#N)cc1 (mixture of isomers) [Example 9B, (±)-4-(3-(2-((2R)-2-Hydroxy-7-azabicyclo[2.2.1]heptan-7-yl)acetyl)-2-methyl-5-(2-(tetrahydro-2H-pyran-4-yl)ethyl)-1H-pyrrol-1-yl)benzonitrile] | > 7.30
7 | Cc1c(C(=O)CN2C3CCC2[C@@H](O)C3)cc(C#CCCC#N)n1-c1ccc(C#N)cc1 (mixture of isomers) [Example 10B, (±)-4-(5-(4-Cyanobut-1-yn-1-yl)-3-(2-((2R)-2-hydroxy-7-azabicyclo[2.2.1]heptan-7-yl)acetyl)-2-methyl-1H-pyrrol-1-yl)benzonitrile] | > 7.30
8 | Cc1c(C(=O)CN2C3CCC2[C@H](O)C3)cc(C(C)CCS(C)(=O)=O)n1-c1ccc(C#N)cc1 (mixture of isomers) [Example 11B, (±)-4-(3-(2-((2R)-2-Hydroxy-7-azabicyclo[2.2.1]heptan-7-yl)acetyl)-2-methyl-5-(4-(methylsulfonyl)butan-2-yl)-1H-pyrrol-1-yl)benzonitrile] | < 6.30
9 | Cc1c(C(=O)CN2[C@@H]3CC[C@H]2[C@@H](O)C3)cc(CCCCC2CCOCC2)n1-c1ccc(C#N)cc1 (racemic) [Example 14B, (±)-4-(3-(2-((1S,2S,4R)-2-Hydroxy-7-azabicyclo[2.2.1]heptan-7-yl)acetyl)-2-methyl-5-(4-(tetrahydro-2H-pyran-4-yl)butyl)-1H-pyrrol-1-yl)benzonitrile] | > 7.30
10 | Cc1c(C(=O)CN2[C@@H]3CC[C@H]2[C@@H](O)C3)cc(/C=C/CC(C)(C)C#N)n1-c1ccc(C#N)cc1 (racemic) [Example 15B, (±)-4-(5-((E)-4-Cyano-4-methylpent-1-en-1-yl)-3-(2-((1R,2R,4S)-2-hydroxy-7-azabicyclo[2.2.1]heptan-7-yl)acetyl)-2-methyl-1H-pyrrol-1-yl)benzonitrile] | > 7.30
11 | Cc1c(C(=O)CN2C3CCC2C(O)C3)cc([C@@H]2C[C@H]2CCC#N)n1-c1ccc(C#N)cc1 (mixture of isomers) [Example 17B, (±)-4-(5-((1R,2R)-2-(2-Cyanoethyl)cyclopropyl)-3-(2-((2R)-2-hydroxy-7-azabicyclo[2.2.1]heptan-7-yl)acetyl)-2-methyl-1H-pyrrol-1-yl)benzonitrile] | 6.30 to 7.30
12 | Cc1c(CCCCS(C)(=O)=O)c(C(=O)CN2C3CCC2[C@@H](O)C3)c(C)n1-c1ccc(C#N)cc1 (mixture of isomers) [Example 19B, (±)-4-(3-(2-((2R)-2-Hydroxy-7-azabicyclo[2.2.1]heptan-7-yl)acetyl)-2,5-dimethyl-4-(4-(methylsulfonyl)butyl)-1H-pyrrol-1-yl)benzonitrile] | < 6.30
13 | Cc1c(C(=O)CN2C3CCC2[C@@H](O)C3)cc(/C=C/CCC#N)n1-c1ccc(C#N)cc1 (mixture of isomers) [Example 20B, (±)-4-(5-((E)-4-Cyanobut-1-en-1-yl)-3-(2-((2R)-2-hydroxy-7-azabicyclo[2.2.1]heptan-7-yl)acetyl)-2-methyl-1H-pyrrol-1-yl)benzonitrile] | > 7.30
14 | Cc1c(C(=O)CN2[C@@H]3CC[C@H]2[C@@H](O)C3)cc(CCCC2COC2)n1-c1ccc(C#N)cc1 (racemic) [Example 22B, (±)-4-(3-(2-((1R,2R,4S)-2-Hydroxy-7-azabicyclo[2.2.1]heptan-7-yl)acetyl)-2-methyl-5-(3-(oxetan-3-yl)propyl)-1H-pyrrol-1-yl)benzonitrile] | > 7.30
15 | Cc1c(C(=O)CN2[C@@H]3CC[C@H]2[C@@H](O)C3)cc(CCCCC2COC2)n1-c1ccc(C#N)cc1 (racemic) [Example 23B, (±)-4-(3-(2-((1S,2S,4R)-2-Hydroxy-7-azabicyclo[2.2.1]heptan-7-yl)acetyl)-2-methyl-5-(4-(oxetan-3-yl)butyl)-1H-pyrrol-1-yl)benzonitrile] | > 7.30
16 | Cc1c(C(=O)CN2C3CCC2[C@@H](O)C3)cc(CCCn2cccn2)n1-c1ccc(C#N)cc1 (mixture of isomers) [Example 24B, (±)-4-(5-(3-(1H-Pyrazol-1-yl)propyl)-3-(2-((2R)-2-hydroxy-7-azabicyclo[2.2.1]heptan-7-yl)acetyl)-2-methyl-1H-pyrrol-1-yl)benzonitrile] | 6.30 to 7.30
17 | Cc1c(C(=O)CN2[C@@H]3CC[C@H]2[C@@H](O)C3)cc(/C=C/Cn2cccn2)n1-c1ccc(C#N)cc1 (racemic) [Example 27B, (±)-4-(5-((E)-3-(1H-Pyrazol-1-yl)prop-1-en-1-yl)-3-(2-((1S,2S,4R)-2-hydroxy-7-azabicyclo[2.2.1]heptan-7-yl)acetyl)-2-methyl-1H-pyrrol-1-yl)benzonitrile] | > 7.30
18 | Cc1c(C(=O)CN2[C@@H]3CC[C@H]2[C@@H](O)C3)cc(CCCCC#N)n1-c1ccc(Cl)cc1 (racemic) [Example 29B, (±)-5-(1-(4-Chlorophenyl)-4-(2-((1R,2R,4S)-2-hydroxy-7-azabicyclo[2.2.1]heptan-7-yl)acetyl)-5-methyl-1H-pyrrol-2-yl)pentanenitrile] | > 7.30
19 | Cc1c(C#N)c(C(=O)CN2C3CCC2[C@@H](O)C3)c(C)n1-c1ccc(C#N)cc1 (mixture of isomers) [Example 33B, (±)-1-(4-Cyanophenyl)-4-(2-((2R)-2-hydroxy-7-azabicyclo[2.2.1]heptan-7-yl)acetyl)-2,5-dimethyl-1H-pyrrole-3-carbonitrile] | < 6.30
20 | CSCCCCc1cc(C(=O)CN2C3CCC2[C@@H](O)C3)c(C)n1-c1ccc(C#N)cc1 (mixture of isomers) [Example 37B, (±)-4-(3-(2-((2R)-2-Hydroxy-7-azabicyclo[2.2.1]heptan-7-yl)acetyl)-2-methyl-5-(4-(methylthio)butyl)-1H-pyrrol-1-yl)benzonitrile] | > 7.30
21 | CSCCCCCc1cc(C(=O)CN2[C@@H]3CC[C@H]2[C@@H](O)C3)c(C)n1-c1ccc(C#N)cc1 (racemic) [Example 38B, (±)-4-(3-(2-((1R,2R,4S)-2-Hydroxy-7-azabicyclo[2.2.1]heptan-7-yl)acetyl)-2-methyl-5-(5-(methylthio)pentyl)-1H-pyrrol-1-yl)benzonitrile] | > 7.30
22 | Cc1c(C(=O)CN2C3CCC2[C@@H](O)C3)cc(CC2COC2)n1-c1ccc(C#N)cc1 (mixture of isomers) [Example 39B, (±)-4-(3-(2-((2R)-2-Hydroxy-7-azabicyclo[2.2.1]heptan-7-yl)acetyl)-2-methyl-5-(oxetan-3-ylmethyl)-1H-pyrrol-1-yl)benzonitrile] | > 7.30
23 | Cc1c(C(=O)CN2C3CCC2[C@@H](O)C3)c(Cl)c(CCCCC#N)n1-c1ccc(C#N)c(F)c1 (mixture of isomers) [Example 40B, (±)-4-(3-Chloro-2-(4-cyanobutyl)-4-(2-((2R)-2-hydroxy-7-azabicyclo[2.2.1]heptan-7-yl)acetyl)-5-methyl-1H-pyrrol-1-yl)-2-fluorobenzonitrile] | > 7.30
24 | Cc1nc(Cc2cc(C(=O)CN3C4CCC3[C@@H](O)C4)c(C)n2-c2ccc(C#N)cc2)cs1 (mixture of isomers) [Example 41B, (±)-4-(3-(2-((2R)-2-Hydroxy-7-azabicyclo[2.2.1]heptan-7-yl)acetyl)-2-methyl-5-((2-methylthiazol-4-yl)methyl)-1H-pyrrol-1-yl)benzonitrile] | > 7.30
25 | Cc1c(C(=O)CN2C3CCC2[C@@H](O)C3)cc(CCCC2(C)COC2)n1-c1ccc(C#N)cc1 (mixture of isomers) [Example 42B, (±)-4-(3-(2-((2R)-2-Hydroxy-7-azabicyclo[2.2.1]heptan-7-yl)acetyl)-2-methyl-5-(3-(3-methyloxetan-3-yl)propyl)-1H-pyrrol-1-yl)benzonitrile] | > 7.30
26 | Cc1c(C(=O)CN2C3CCC2[C@@H](O)C3)cc(CCC2COC2)n1-c1ccc(C#N)cc1 (mixture of isomers) [Example 43B, (±)-4-(3-(2-((2R)-2-Hydroxy-7-azabicyclo[2.2.1]heptan-7-yl)acetyl)-2-methyl-5-(2-(oxetan-3-yl)ethyl)-1H-pyrrol-1-yl)benzonitrile] | > 7.30
27 | Cc1c(C(=O)CN2[C@@H]3CC[C@@H]2[C@@H](O)C3)cc(CC2CCOCC2)n1-c1ccc(C#N)cc1 (racemic) [Example 44B, (±)-4-(3-(2-((1R,2S,4R)-2-Hydroxy-7-azabicyclo[2.2.1]heptan-7-yl)acetyl)-2-methyl-5-((tetrahydro-2H-pyran-4-yl)methyl)-1H-pyrrol-1-yl)benzonitrile] | > 7.30
